We go through nine substances from paper PMC12272249, “Engineering high-efficiency matriptase substrates using E. coli display for applications in prodrug activation” (Cell Reports Methods, 2025).

In data set [1] the target is urokinase-type plasminogen activator (uPA) (Homo sapiens, UniProt P00749). Nature of the data set: FRET substrate stability against uPA. Format: in vitro ADME. The note with it: 30 μM Abz/Dnp peptide, 10 nM uPA, appropriate buffer, 37°C, 100 min (6,000 s), fluorescence, three replicates. As to the method: (§1) (cysteine protease), urokinase plasminogen[36] (uPA; serine protease), and MMP-2[37] (matrix metalloprotease), respectively.
(§2) Initial velocity (V0) was calculated from early linear slopes. […] Fluorescence was recorded for 6000 s.

Data set [2] deals with T1, matriptase (Homo sapiens, UniProt Q9Y5Y6).
T1 construct: purchased R&D Systems (Bio-Techne) 3946-SEB
T1 sequence (Q9Y5Y6 615-855 limits assumed): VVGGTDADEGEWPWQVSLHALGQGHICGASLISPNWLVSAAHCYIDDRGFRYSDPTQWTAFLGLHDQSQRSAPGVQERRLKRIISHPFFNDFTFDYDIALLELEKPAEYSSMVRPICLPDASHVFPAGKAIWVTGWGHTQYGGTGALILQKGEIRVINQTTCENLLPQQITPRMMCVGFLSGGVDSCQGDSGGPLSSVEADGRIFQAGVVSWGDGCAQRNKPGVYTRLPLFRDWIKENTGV
Briefly: Cleavage of soluble substrates in affibody-ABD format, SDS-PAGE. Format: biochemical. The note with it: 37°C; for cleavage: affibody-ABD fusion 50 μg/mL in PBS, SDS-PAGE densitometry (ImageJ). As to the method: Affibody-ABD substrates (50 μg/mL in PBS) were treated with 1, 10, or 50 nM matriptase at 37°C for 10, 30, or 60 min. Reactions were quenched by adding SDS loading buffer (31.2 mM Tris-HCl, pH 6.8, 1% SDS, 12.5% glycerol, 0.01% bromophenol blue, 5 mM TCEP) and heating at 90°C for 10 min. Samples were analyzed by SDS-PAGE as above. High-resolution gel images (600 dpi) were analyzed using ImageJ (v1.54i). Band intensities were quantified to assess the fraction of cleaved vs. intact substrate. Data were processed in Microsoft Excel and visualized with GraphPad Prism 10.

In data set [3] the target is TEV protease (Tobacco etch virus, UniProt P04517). Nature of the data set: E. coli display cleavage reporter assay, flow cytometry, TEV protease treatment. The note with it: E. coli-displayed substrate, 100 nM TEV, 30 min, 30°C, n = 3. (In general: A reporter such as luciferase makes a cellular process visible.)
TEV protease, sequence (P04517 2038-2279): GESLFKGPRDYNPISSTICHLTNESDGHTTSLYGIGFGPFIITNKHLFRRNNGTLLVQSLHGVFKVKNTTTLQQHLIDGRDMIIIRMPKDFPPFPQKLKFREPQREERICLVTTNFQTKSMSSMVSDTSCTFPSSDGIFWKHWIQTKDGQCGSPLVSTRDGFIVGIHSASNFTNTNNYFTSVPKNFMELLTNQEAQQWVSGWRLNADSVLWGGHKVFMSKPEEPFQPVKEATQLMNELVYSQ
For data set [4], the target named is T1, matriptase. Briefly: E. coli display cleavage reporter assay, flow cytometry, matriptase treatment. Format: biochemical. The note with it: for cleavage reporter signal of matriptase-treated compared to untreated cells / time to complete cleavage: E. coli-displayed substrate; for cleavage reporter signal of matriptase-treated compared to untreated cells: 100 nM matriptase, 30 min, 37°C, n = 3; for relative cleavage efficiency group (high, medium, low): E. coli-displayed substrate, 1, 10, 25 and 50 nM matriptase over 90 min; for time to complete cleavage: flow cytometry.

The target of data set [5] is T2, legumain (Homo sapiens, UniProt Q99538).
T2 construct: purchased R&D Systems (Bio-Techne) 2199-CY
T2 sequence (Q99538 18-433): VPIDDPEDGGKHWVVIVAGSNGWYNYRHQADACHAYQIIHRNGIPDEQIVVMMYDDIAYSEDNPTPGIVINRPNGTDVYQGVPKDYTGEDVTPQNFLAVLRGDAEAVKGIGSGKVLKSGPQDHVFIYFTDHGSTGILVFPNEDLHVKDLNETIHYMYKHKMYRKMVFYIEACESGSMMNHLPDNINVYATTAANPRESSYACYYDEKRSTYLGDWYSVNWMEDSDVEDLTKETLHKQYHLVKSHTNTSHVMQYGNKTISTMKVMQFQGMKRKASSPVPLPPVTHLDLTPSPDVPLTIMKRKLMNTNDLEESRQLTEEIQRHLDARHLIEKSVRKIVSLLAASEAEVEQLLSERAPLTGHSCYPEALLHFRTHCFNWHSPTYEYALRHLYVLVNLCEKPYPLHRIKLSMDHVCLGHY
Nature of the data set: FRET substrate stability against legumain. Format: in vitro ADME. The note with it: 30 μM Abz/Dnp peptide, 10 nM legumain, appropriate buffer, 37°C, 100 min (6,000 s), fluorescence, three replicates. As to the method: as §1, §2

In data set [6] the target is T1, matriptase. Briefly: FRET-based kinetic analysis of matriptase cleavage. It is filed as biochemical. The note with it: 10 nM matriptase; for Vmax / Km / kcat/KM / kcat: Abz/Dnp-labelled 6-mer peptide, PBS, 37°C, n = 3; for Vmax / Km / kcat: Michaelis-Menten fit; for Vmax / kcat/KM / kcat: average ± SD; for kcat: serial dilution of substrate, 90 min, Ex 320/Em 420 nm; for substrate cleavage by matriptase under identical conditions: 30 μM Abz/Dnp peptide, 37°C, 6,000 s, three replicates.

For data set [7], the target named is T1, matriptase. The note with it: previously reported value; cited from earlier work. The method, then:
The most promising newly discovered substrates (MtpB9, MtpC5, and MtpC9), along with control substrates, were chemically synthesized and linked to 2-aminobenzoyl (Abz) and 2,4-dinitrophenyl (Dnp), a standard fluorophore/quencher combination used in FRET assays (Figure 4A). A serial dilution of the substrates (ranging from 120 to 1.75 μM) was used to monitor matriptase cleavage activity. The reaction was tracked by measuring the Abz fluorescence continuously for 90 min. Kinetic parameters were calculated by fitting the cleavage rates to substrate concentrations using the Michaelis-Menten equati ...

Data set [8] has as its target T1, matriptase. It is filed as biochemical.

Where “and” joins values, the source holds several entries; their conditions need not be identical. Identical values can stand only once. Like-named read-outs stand apart in the source and are kept apart here.

For the substance “ENLYFQG [TEV-control, TEV protease substrate, non-cleavable control for matriptase, reference compound]”, the “substrate cleavage by uPA” value in data set [1] is “No detectable cleavage”. Besides, the “cleavage under any tested conditions” value in data set [2] (affibody-ABD fusion, 1, 10 or 50 nM matriptase, 10, 30 or 60 min, SDS-PAGE) is on record as “no cleavage”. Besides, the “cleavage reporter signal of TEV-treated compared to untreated cells” value in data set [3] was “significantly lower signals”. Moreover, the “cleavage reporter signal of matriptase-treated compared to untreated cells” value in data set [4] is recorded as “No significant difference”. In addition, the “substrate cleavage by legumain” value in data set [5] is given as “No detectable cleavage”.
Consider PFKRQL [MtpC12], for which the “relative cleavage efficiency group (high, medium, low)” value (“relative cleavage efficiency group” below) in data set [4] is “low”.
With LKRLMR [MtpA6], the “relative cleavage efficiency group” value in data set [4] was “low”.
One may read the Vmax as the rate approached at saturating substrate. A word on the Km: it is the concentration of substrate that gives half-maximal velocity. In general, kcat refers to the number of substrate molecules converted per active site and unit of time at saturation. As for “LSGRSDNH [Mtp-control, reference compound]”, in data set [6], the maximum rate (Vmax) was 0.02 ± 0.0057 µM/s; the Km came out at 191 µM; the kcat/KM is 1.28E+04 ± 2,969 M^−1 s^−1 and 1.3E+04 ± 2,969 M^−1 s^−1; the kcat amounted to 2.5 ± 0.57 s⁻¹. Moreover, the “kcat/KM in the previous study” value in data set [7] is 2200 M⁻¹ s⁻¹. Further, the “substrate cleavage by uPA” value in data set [1] is reported as “No detectable cleavage”. The cleavage in data set [2] (50 nM matriptase, 1 h) was 96%. For the same substance, the “cleavage reporter signal of TEV-treated compared to untreated cells” value in data set [3] is reported as “No significant difference”. Also, the “cleavage reporter signal of matriptase-treated compared to untreated cells” value in data set [4] is “significantly lower signals”. Besides, the “substrate cleavage by legumain” value in data set [5] is given as “No detectable cleavage”.
Consider MKRKAR [MtpC10], for which the “relative cleavage efficiency group” value in data set [4] is recorded as “medium”.
For the substance VPRGRR [MtpC5], the “time to complete cleavage” value in data set [8] is given as not above 30 min. For the same substance, in data set [6], the “substrate cleavage by matriptase under identical conditions” value (from here on “substrate cleavage by matriptase”) is on record as “cleavage was observed”; the Vmax amounted to 0.06 ± 0.0005 µM/s; the Km came to 12.5 µM; the kcat/KM is 5.13E+05 ± 3,910 M^−1 s^−1 and 5.1E+05 ± 3,910 M^−1 s^−1. Also, in data set [6], the turnover number (kcat) stood at 6.4 ± 0.05 s⁻¹. Moreover, in data set [1], the “substrate cleavage by uPA” value is “No detectable substrate cleavage”. Besides, the cleavage result in data set [2] (1 nM matriptase, 10 min, two replicates) is “approximately 86%”. Besides, in data set [4] (10 nM matriptase), the “time to complete cleavage” value is 60 min. For the same substance, the “time to complete cleavage” value in data set [4] (25 nM matriptase) was not above 30 min. Moreover, the “relative cleavage efficiency group” value in data set [4] is given as “high”. Also, the “substrate cleavage by legumain” value in data set [5] is “No detectable substrate cleavage”.
As for HYKGRK [MtpC9], the “time to complete cleavage” value in data set [8] is listed as not above 30 min. Also, in data set [6], the “substrate cleavage by matriptase” value is listed as “cleavage was observed”, the Vmax was 0.06 ± 0.0021 µM/s, the Km amounted to 29.1 µM and the kcat/KM was 1.9E+05 ± 7,099 M^−1 s^−1. Also, in data set [6], the kcat is 5.6 ± 0.21 s⁻¹. Further, the “substrate cleavage by uPA” value in data set [1] was “No detectable substrate cleavage”. Also, in data set [4] (10 nM matriptase), the “time to complete cleavage” value is reported as 60 min. In data set [4] (25 nM matriptase), the “time to complete cleavage” value is not above 30 min. In addition, the “relative cleavage efficiency group” value in data set [4] is listed as “high”. Further, the “substrate cleavage by legumain” value in data set [5] was “No detectable substrate cleavage”.
With GAKSRR [MtpB9], in data set [8], the “time to complete cleavage” value is not above 30 min. In addition, in data set [6], the “substrate cleavage by matriptase” value is listed as “cleavage was observed”, the Vmax is 0.04 ± 0.0007 µM/s, the Km came to 18.7 µM and the kcat/KM is recorded as 2.3E+05 ± 3,948 M^−1 s^−1. In addition, the kcat in data set [6] is 4.4 ± 0.07 s⁻¹. In data set [1], the “substrate cleavage by uPA” value is reported as “No detectable substrate cleavage”. In data set [4] (10 nM matriptase), the “time to complete cleavage” value is 60 min. Moreover, the “time to complete cleavage” value in data set [4] (25 nM matriptase) is not above 30 min. The “relative cleavage efficiency group” value in data set [4] is given as “high”. Besides, the “substrate cleavage by legumain” value in data set [5] is listed as “No detectable substrate cleavage”.
For MGRSFY [MtpB11], in data set [4], the “relative cleavage efficiency group” value is given as “medium”.
